Entries after “also recorded” stand apart in the source; their conditions may differ.

The target in one data set is T1, iGluR5(Q) (Homo sapiens, UniProt P39086).
T1 construct: expressed in transfected cells; host or cells: HEK293
Put plainly: Whole-cell voltage clamp dose-response in HEK293 cells expressing iGluR5(Q). The data set is classed as cell-based. As to the method: (§1) HEK293 cells were plated at approximately 3×10^6 cells/ml on poly-L-lysine-coated glass coverslips (Deutsche Spiegelglas, Carolina Biological) and maintained in DMEM with 5% newborn calf serum, 0.2 mg/ml streptomycin, and 200 U/ml penicillin at 37° C. Cells were transiently transfected with various plasmids using lipofectamine 2000 (Invitrogen). The amount of total transfected ionotropic glutamate receptor-2 (iGluR2), iGluR5, and iGluR6 DNA and enhanced yellow fluorescent protein (EYFP) fusion DNA per 0.5 mL well was fixed at 0.7 μg and 0.3 μg, respectively. All recordings were carried out 24 to 48 h after transfection.
(§2) Patch clamp recordings were carried out using an Axopatch 200A amplifier in the whole cell mode. HEK cells were voltage clamped at −60 mV and hippocampal neurons were current clamped at −65 mV. Pipettes had resistances 2-6 MΩ. For experiments in HEK cells, pipettes were filled with a solution containing (in mM): 145 CsCl, 5 EGTA, 0.5 CaCl2, 1.0 MgCl2 and 10 HEPES at pH7.2 (CsOH). The extracellular solution contained (in mM): 135 NaCl, 5.4 KCl, 0.9 MgCl2, 1.8 CaCl2, and 10 HEPES at pH 7.6 (NaOH). Cells were preincubated for 10 min in control solution containing 300 mg/l Concanavalin A type VI (Sigma) in order to block desensitization. For experiments in hippocampal neurons, pipettes were filled with a solution containing (in mM): 10 NaCl, 1 EGTA, 135 K-gluconate, 2.0 MgCl2, 10 HEPES and 2 Mg-ATP at pH7.4 (KOH). The extracellular solution contained (in mM): 138 NaCl, 1.5 KCl, 1.2 MgCl2, 2.5 CaCl2, 10 glucose and 10 HEPES at pH 7.3 (NaOH). L-Glutamate, DNQX, and compound 2 were applied as reported in text and figures with complete exchange of the bath solution occurring in less than 10 sec. Compound 2 was not pre-irradiated prior to perfusion, but the bath and coverslip were continuously under illumination as denoted in traces. Following complete exchange of the bath, perfusion of 2 was stopped prior to switching illumination wavelengths. Illumination was applied using a TILL Photonics Polychrome V monochromator through a 40×/0.60 W objective (power output: 4.8 mW/mm^2 at 500 nm and 1.8 mW/mm^2 at 380 nm, as measured with a Newport optical power meter). Data was recorded with pClamp software, which was also used to automatically control the monochromator by means of sequencing keys. The results are representative data from multiple cells in at least three independent cultures.

Data set [1] has as its system cultured rat hippocampal neurons. Kind of data set: Whole-cell current clamp recording of cultured hippocampal neurons. It is filed as cell-based. As to the method:
as §2, with “L-Glutamate, DNQX, and compound 2 were applied as reported in text and figures with complete exchange of the bath solution occurring in less than 10 sec. Compound 2 was not pre-irradiated prior to perfusion, but the bath and coverslip were continuously under illumination as denoted in traces. Following complete exchange of the bath, perfusion of 2 was stopped prior to switching illumination wavelengths.” left out, “The results are representative data from multiple cells in at least three independent cultures.” left out

Data set [2] in a line: Photostationary state determination by NMR with in situ irradiation. The data set is classed as physicochemical. The following applies: D2O, mean±s.e.m., n=3. As to the method:
Cis/trans photoisomerization of 2 was studied by ^1H NMR, with in situ irradiation of the sample using a Polychrome V system monochromator (TILL Photonics) containing a 150 W Xenon short arc lamp with an output range of 320-680 nm. The half-power bandwidth was 14 nm. A 500 μl aliquot of a 100 mM sample in D2O was prepared in a screw-capped 528-TR-7 NMR tube (Wilmad). A FT-600-UMT fiber optic cable (NA 0.39) (Thorlabs) was coupled at one end to the monochromator using a custom fitting and the other end inserted into the NMR tube a few millimeters above the solution. Each sample was irradiated at the desired wavelength for 30 minutes to reach the photostationary state and 480 scans were required to obtain reasonable signal-to-noise ratios. The output from the fiber optic cable between 340-480 nm ranged from 0.3-9.0 μW/cm^2. Data were processed by isolating aromatic cis-trans ^1H signals and summing their integrals to 1.0. All data were obtained in triplicate and averaged.

Another data set has as its target T2, wild-type iGluR6(Q) (Homo sapiens, UniProt Q13002).
T2 construct: expressed in transfected cells; host or cells: HEK293
Put plainly: Whole-cell voltage clamp recording in HEK293 cells expressing iGluR6(Q). The data set is classed as cell-based. As to the method: as §1, §2

The subject of another data set is iGluR2(Q)flip-L483Y. Kind of data set: Whole-cell voltage clamp recording in HEK293 cells expressing iGluR2. It is filed as cell-based. As to the method: as §1
Patch clamp recordings were carried out using an Axopatch 200A amplifier in the whole cell mode. HEK cells were voltage clamped at −60 mV and hippocampal neurons were current clamped at −65 mV. Pipettes had resistances 2-6 MΩ. For experiments in HEK cells, pipettes were filled with a solution containing (in mM): 145 CsCl, 5 EGTA, 0.5 CaCl2, 1.0 MgCl2 and 10 HEPES at pH7.2 (CsOH). […] Illumination was applied using a TILL Photonics Polychrome V monochromator through a 40×/0.60 W objective (power output: 4.8 mW/mm^2 at 500 nm and 1.8 mW/mm^2 at 380 nm, as measured with a Newport optical power meter). Data was recorded with pClamp software, which was also used to automatically control the monochromator by means of sequencing keys. […]

A further data set deals with iGluR. Kind of data set: Rates of light-driven channel activation and deactivation (whole-cell patch clamp). The data set is classed as cell-based. The following applies: mean±s.e.m., n=3. As to the method:
as §2, with “L-Glutamate, DNQX, and compound 2 were applied as reported in text and figures with complete exchange of the bath solution occurring in less than 10 sec. Compound 2 was not pre-irradiated prior to perfusion, but the bath and coverslip were continuously under illumination as denoted in traces. Following complete exchange of the bath, perfusion of 2 was stopped prior to switching illumination wavelengths.” left out, “The results are representative data from multiple cells in at least three independent cultures.” left out
On the technique in general: Patch clamp records ionic current or voltage across a cell membrane.

T1 sequence (P39086 31-918): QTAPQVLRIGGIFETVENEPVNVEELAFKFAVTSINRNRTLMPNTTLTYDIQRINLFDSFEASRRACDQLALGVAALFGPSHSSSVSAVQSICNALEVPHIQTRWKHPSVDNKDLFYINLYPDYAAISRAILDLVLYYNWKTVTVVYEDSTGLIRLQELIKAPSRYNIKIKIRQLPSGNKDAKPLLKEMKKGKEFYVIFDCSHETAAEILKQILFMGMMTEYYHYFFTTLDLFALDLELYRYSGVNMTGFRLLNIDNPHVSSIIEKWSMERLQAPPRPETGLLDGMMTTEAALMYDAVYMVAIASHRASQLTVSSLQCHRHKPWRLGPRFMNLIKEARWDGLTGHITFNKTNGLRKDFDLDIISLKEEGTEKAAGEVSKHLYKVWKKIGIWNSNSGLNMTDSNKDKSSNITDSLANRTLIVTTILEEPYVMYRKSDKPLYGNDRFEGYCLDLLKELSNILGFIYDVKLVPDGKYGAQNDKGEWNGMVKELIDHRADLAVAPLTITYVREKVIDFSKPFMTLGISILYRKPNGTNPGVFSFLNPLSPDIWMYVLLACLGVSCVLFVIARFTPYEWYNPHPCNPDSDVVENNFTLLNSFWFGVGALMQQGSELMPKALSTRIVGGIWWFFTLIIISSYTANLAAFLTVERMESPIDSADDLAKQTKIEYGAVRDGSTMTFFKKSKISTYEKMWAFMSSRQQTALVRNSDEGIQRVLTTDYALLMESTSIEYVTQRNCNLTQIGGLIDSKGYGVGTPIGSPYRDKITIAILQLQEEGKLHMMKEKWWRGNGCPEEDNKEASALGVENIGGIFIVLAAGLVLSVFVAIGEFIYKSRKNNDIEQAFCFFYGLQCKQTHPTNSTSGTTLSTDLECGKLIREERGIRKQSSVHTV
T2 sequence (Q13002 32-908): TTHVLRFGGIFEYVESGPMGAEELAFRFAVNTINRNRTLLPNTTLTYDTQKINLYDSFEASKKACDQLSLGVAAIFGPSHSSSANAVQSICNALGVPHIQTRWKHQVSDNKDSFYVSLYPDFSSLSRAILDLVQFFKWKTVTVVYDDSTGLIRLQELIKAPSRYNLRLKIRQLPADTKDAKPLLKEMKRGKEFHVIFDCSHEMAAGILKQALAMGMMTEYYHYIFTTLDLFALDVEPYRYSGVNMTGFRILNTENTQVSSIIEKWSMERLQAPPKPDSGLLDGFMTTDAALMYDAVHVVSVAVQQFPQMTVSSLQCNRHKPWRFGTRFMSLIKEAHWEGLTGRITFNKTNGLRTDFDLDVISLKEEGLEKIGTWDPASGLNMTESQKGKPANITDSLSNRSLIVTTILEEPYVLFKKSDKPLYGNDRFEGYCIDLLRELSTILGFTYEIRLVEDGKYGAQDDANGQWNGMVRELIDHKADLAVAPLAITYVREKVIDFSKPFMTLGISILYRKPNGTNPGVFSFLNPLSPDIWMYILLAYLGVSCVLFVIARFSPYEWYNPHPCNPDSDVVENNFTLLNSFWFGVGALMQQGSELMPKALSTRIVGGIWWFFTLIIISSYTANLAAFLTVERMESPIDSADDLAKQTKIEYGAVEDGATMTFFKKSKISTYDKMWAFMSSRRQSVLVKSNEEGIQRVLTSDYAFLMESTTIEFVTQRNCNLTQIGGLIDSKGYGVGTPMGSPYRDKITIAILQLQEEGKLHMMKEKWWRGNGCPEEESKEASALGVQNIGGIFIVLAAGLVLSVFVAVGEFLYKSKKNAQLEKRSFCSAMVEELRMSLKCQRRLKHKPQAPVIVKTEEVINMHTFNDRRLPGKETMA

As for `N[C@@H](CC(C/C=C/c1ccc(/N=N/c2ccccc2)cc1)C(=O)O)C(=O)O` (stereo partly shown) [Compound 2], at iGluR5(Q) (dose-response curves under 380 and 500 nm light), the “efficacy with respect to a 300 μM glutamate evoked response” value is “approximately half-maximal efficacy”. For the same compound, the “selectivity at iGluR5 over iGluR6 receptors” value at iGluR5(Q) (dose-response curves, iGluR5(Q) versus iGluR6(Q)) was “high selectivity”. In addition, at iGluR5(Q) (under 380 nm light), the “reduction of apparent agonist affinity (EC50) relative to 500 nm” value is roughly 10 fold. Further, the EC50 at iGluR5(Q) (under 500 nm illumination, read-out: apparent agonist affinity (EC50)) is 9 µM. Further, in data set [1] (25 μM, current clamped at −65 mV, no ConA, switching between 380 and 500 nm), the “light-controlled action potential firing” value was “sufficient to trigger, and extinguish, sustained trains of action potentials”. Besides, the “photostationary state content of cis-2” value in data set [2] (380 nm irradiation) is 76.3±0.3%. Moreover, the “photostationary state content of trans-2” value in data set [2] (500 nm irradiation) was 89±1%. For the same compound, at wild-type iGluR6(Q) (25 μM), the “extent of iGluR6 channel activation” value is “only activated to a small extent”. The “channel activation (inward currents) depending on wavelength of irradiation” value at wild-type iGluR6(Q) (HEK293, ConA 0.3 mg/mL pretreated, trans- versus cis-state) is “increased inward currents in the trans-relative to the cis-state”. For the same compound, the “inward currents in the presence of 250 μM 2” value with iGluR2(Q)flip-L483Y (250 μM, 380 and 500 nm illumination) was “failed to produce inward currents; also recorded: no effect in either the trans- (500 nm) or cis-state (380 nm)”. The “rate of deactivation τoff-380nm” value with iGluR (380 nm, 1.8 mW/mm^2) was 250 ± 14 ms. The “rate of activation τon-500nm” value in the data set on iGluR (500 nm, 4.8 mW/mm^2) worked out at 310 ± 15 ms.
In the case of `O=C1N=c2cc([N+](=O)[O-])c([N+](=O)[O-])cc2=NC1=O` [DNQX, 6,7-dinitroquinoxaline-2,3-dione, reference compound], the “block of light activation with 2” value in data set [1] (10 μM DNQX together with 25 μM 2, 380 and 500 nm illumination) was “Pharmacological block of light activation”; at wild-type iGluR6(Q) (10 μM DNQX together with 50 μM 2, 380 and 500 nm illumination) it was “Pharmacological block of light activation”. Further, at wild-type iGluR6(Q) (HEK293 expressing iGluR6(Q)), the “block of the activity of 2” value is given as “competitively blocked”.
On to `N[C@@H](CCC(=O)O)C(=O)O` [Glu, reference compound], for which the “inward current evoked by 300 μM Glu” value with iGluR2(Q)flip-L483Y (300 μM) is reported as “evokes a large inward current”.

The EC50 is the midpoint of the concentration-response curve.
